Assay results as given in US9090669B2, “Short fatty acid tail polymyxin derivatives and uses thereof” (priority 2008, dated 2015).
Like-named read-outs stand apart in the source and are kept apart here. Positions of bridges follow the written chain, without caps; N, C: chain ends. Non-standard residues stand in square brackets, D forms with d. Residues, ends and D or L forms follow the SMILES beside them. *: point of attachment. Octanoyl = CCCCCCCC(=O)*; Dab = NCC[C@H](N)C(=O)O

What was measured:
[1] = rat, in vivo; cited from earlier work
E. coli IH3080 = assay: Agar well growth inhibition on LB plates with or without rifampin; type: cell-based, Escherichia coli; conditions: well containing 4 micrograms of the compound; for Activity w. rifampin: growth inhibition around a well: LB plate containing rifampin 0.1 micrograms/ml; for Direct activity: growth inhibition around a well: LB plates
bacteria = conditions: Sakura et al. (2004); cited from earlier work
[2] = Basic pharmacokinetics after i.v. bolus in rats; type: in vivo, rat (Sprague-Dawley); conditions: rat
Experimental: Blood samples were centrifuged to obtain plasma. […] Plasma and urine samples were stored at −80° C. […] NAB 741 was eluted at 6.65±0.05 min and NAB739 was eluted at 9.45±0.05 min.

Ac. baumannii ATCC19606 = assay: E-test MIC of antibacterial agents on Mueller-Hinton agar with or without NAB741; type: cell-based; conditions: Acinetobacter baumannii; A. baumannii ATCC19606; meropenem alone; read-out: MIC of meropenem at NAB 741 concn 0 μg/ml
Text: (§1) Five of the strains originated from ATCC. Acinetobacter baumannii F264 was purchased from Mobidiag Ltd., Helsinki, Finland. The source of E. coli IH3080 has been given in Example 2.
(§2) Sensitization factor was defined as in Example 4. NAB7061 sensitized the meropenem-resistant strain F264 to meropemen by a factor >4.

Ac. baumannii F264 = assay: as above; type: cell-based; conditions: Acinetobacter baumannii; A. baumannii F264 (meropenem-resistant); meropenem alone; read-out: MIC of meropenem at NAB 741 concn 0 μg/ml
Text: as §1, §2

[3] = system: E. coli (ATCC25922 and IH3080), K. pneumoniae ATCC13883, and E. cloacae ATCC23355; type: cell-based; conditions: all four strains; NAB741 alone
Experimental: MICs were determined by using E-strips (Biodisk Ltd., Solna, Sweden) according to the manufacturer's instructions.

Row | Compound | Activity w. rifampin: growth inhibition around a well (E. coli IH3080) [square millimeters] | Direct activity: growth inhibition around a well (E. coli IH3080) [square millimeters] | other results
1 | Colistin (polymyxin E) | – | – | clearance [1]: 5.2 ± 0.4 mL/min/kg; half-life [1]: 1.24 ± 0.22 h; renal clearance [1]: 0.010 ± 0.008 mL/min/kg; volume of distribution [1]: 0.496 ± 0.06 L/kg
2 | Polymyxin B | 95 | 79 | –
3 | Deacylpolymyxin B | 79 | 57 | –
4 | acetyl-Thr-DAsn-cy[Dab-Dab-DPhe-Leu-Dab-Dab-Thr-] [NAB 745] | 50 | 0 | –
5 | octanoyl polymyxin B heptapeptide [Octanoyl PMBH] | 0 | 0 | Concentration that inhibits the growth of bacteria (bacteria): 128 µg/mL
6 | Deacylcolistin | 87 | 79 | –
7 | CCCCCCCC(=O)N[C@H](C(=O)N[C@H](CO)C(=O)N[C@H]1CCNC(=O)[C@H]([C@@H](C)O)NC(=O)[C@H](CCN)NC(=O)[C@H](CCN)NC(=O)[C@H](CC(C)C)NC(=O)[C@@H](Cc2ccccc2)NC(=O)[C@H](CCN)NC1=O)[C@@H](C)O [NAB 739] (Octanoyl-T[dS][Dab][Dab][dF]L[Dab][Dab]T; lactam 3-C) | – | – | clearance ([2]; acetate 1 mg/kg i.v. bolus): 2.63 ± 0.54 mL/min/kg; renal clearance ([2]; acetate 1 mg/kg i.v. bolus): 0.53 ± 0.30 mL/min/kg; volume of distribution ([2]; acetate 1 mg/kg i.v. bolus): 0.222 ± 0.0205 L/kg; half-life ([2]; acetate 1 mg/kg i.v. bolus, plasma): 1.15 ± 0.365 h
8 | Polymyxin B heptapeptide | 0 | 0 | –
9 | C[C@@H](O)[C@H]1C(=O)N2C(C(=O)O)=C(S[C@@H]3CN[C@H](C(=O)N(C)C)C3)[C@H](C)[C@H]12 [meropenem] | – | – | MIC (Ac. baumannii ATCC19606): 0.75 µg/mL; MIC (Ac. baumannii F264): > 32 µg/mL
10 | Polymyxin B nonapeptide [Polymyxin B nonpeptide] | 20 | 0 | –
11 | CC(=O)N[C@H](C(=O)N[C@H](CO)C(=O)N[C@H]1CCNC(=O)[C@H]([C@@H](C)O)NC(=O)[C@H](CCN)NC(=O)[C@H](CCN)NC(=O)[C@H](CC(C)C)NC(=O)[C@@H](Cc2ccccc2)NC(=O)[C@H](CCN)NC1=O)[C@@H](C)O [NAB 741, acetyl-Thr-DSer-cy[Dab-Dab-DPhe-Leu-Dab-Dab-Thr-]] (Ac-T[dS][Dab][Dab][dF]L[Dab][Dab]T; lactam 3-C (inferred)) | – | – | MIC of NAB741 [3]: > 16 µg/mL; urinary recovery ([2]; in vivo, iv, 1 mg/kg): 50.9±13.6 % of dose in 24 h; volume of distribution ([2]; in vivo, iv, 1 mg/kg): 0.243 ± 0.024 L/kg
